Source: BindingDB's records for patent US12304898 (Primegene (Beijing), 2025)

How the values were obtained:
Histone deacetylase 6 = biological target: T1, Histone deacetylase 6 (Homo sapiens, UniProt Q9UBN7); test: Inhibitory Activity of the Compounds on HDAC6
T1 sequence (Q9UBN7 whole entry): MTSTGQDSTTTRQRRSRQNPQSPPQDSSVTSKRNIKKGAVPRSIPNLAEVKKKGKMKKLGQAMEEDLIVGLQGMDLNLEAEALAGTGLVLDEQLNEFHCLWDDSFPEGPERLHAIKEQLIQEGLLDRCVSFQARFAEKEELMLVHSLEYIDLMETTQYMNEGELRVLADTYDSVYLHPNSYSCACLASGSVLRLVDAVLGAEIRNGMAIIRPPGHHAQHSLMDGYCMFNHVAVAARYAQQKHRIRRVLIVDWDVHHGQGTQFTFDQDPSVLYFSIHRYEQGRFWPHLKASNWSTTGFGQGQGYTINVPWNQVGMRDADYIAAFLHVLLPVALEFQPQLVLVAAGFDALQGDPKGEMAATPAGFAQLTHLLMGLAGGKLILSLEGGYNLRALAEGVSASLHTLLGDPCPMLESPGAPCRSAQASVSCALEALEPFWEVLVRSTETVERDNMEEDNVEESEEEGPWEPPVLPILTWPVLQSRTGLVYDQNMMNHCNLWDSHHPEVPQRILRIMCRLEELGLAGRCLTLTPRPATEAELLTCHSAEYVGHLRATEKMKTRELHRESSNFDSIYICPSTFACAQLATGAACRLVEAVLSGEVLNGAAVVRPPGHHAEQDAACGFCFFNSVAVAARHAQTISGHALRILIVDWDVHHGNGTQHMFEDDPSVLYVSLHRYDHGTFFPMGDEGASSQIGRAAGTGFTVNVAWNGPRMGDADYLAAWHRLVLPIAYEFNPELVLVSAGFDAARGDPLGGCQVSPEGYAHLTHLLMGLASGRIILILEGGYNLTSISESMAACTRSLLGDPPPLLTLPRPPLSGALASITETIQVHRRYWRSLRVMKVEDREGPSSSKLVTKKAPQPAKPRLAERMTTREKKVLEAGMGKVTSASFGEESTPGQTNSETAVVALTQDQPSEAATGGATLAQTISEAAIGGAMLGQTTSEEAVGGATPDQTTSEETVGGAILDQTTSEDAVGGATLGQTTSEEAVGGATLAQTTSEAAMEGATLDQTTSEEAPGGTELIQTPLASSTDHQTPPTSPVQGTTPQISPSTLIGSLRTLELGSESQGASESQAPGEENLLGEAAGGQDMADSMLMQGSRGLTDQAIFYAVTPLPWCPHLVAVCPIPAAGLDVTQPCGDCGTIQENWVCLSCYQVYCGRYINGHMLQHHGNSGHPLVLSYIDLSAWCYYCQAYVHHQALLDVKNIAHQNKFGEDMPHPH
Experimental: Prepare a 10 mM stock solution of a compound with DMSO. Take 10 μl of stock solution and dilute with 90 μl DMSO to become a 1 mM working solution. […] Add 30 μl trypsin/SAHA mixture (20 mM Hepes pH 8.0, 100 mM NaCl, 10 mM SAHA, 0.01 mg/ml trypsin), incubate at 23° C. for 60 minutes to terminate the reaction. Finally, read fluorescence data by Envision (390 nm excitation, 460 nm emission). […] Finally, analyze the data by XLfit5 software and calculate the IC50 value of the compound. Vorinostat (SAHA) was a positive reference compound.

[1] = biological target: Vascular endothelial growth factor receptor 2 (Homo sapiens, UniProt P35968); test: Inhibitory Activities of the Compounds on VEGFR2
Experimental: Detect compounds on VEGFR2 (KDR) by mobility shift assay. The initial test concentration of a compound was 1000 nM, 3 times dilution, 10 concentrations, and detection in duplicate. Nintedanib (Selleckchem, Cat. S1010) was used as the positive control compound. The operation method was briefly described as follows: kinase VEGFR2 (Carna, Cat. 08-191) at the final concentration of 0.5 nM and the test compound were mixed in the Optiplate-384F well plate and incubated for 10 minutes at room temperature. Then, ATP at a final concentration of 95 μM and 3 μM Kinase substrate 22 (Gill Biochemical (glbiochem), Cat. 112393) were added. After mixing, react at room temperature for 30 minutes. Add stop detection solution to terminate the reaction and read the conversion rate with Caliper EZ ReaderlI.

Chain of Vascular endothelial growth factor receptor 2 (P35968 whole entry): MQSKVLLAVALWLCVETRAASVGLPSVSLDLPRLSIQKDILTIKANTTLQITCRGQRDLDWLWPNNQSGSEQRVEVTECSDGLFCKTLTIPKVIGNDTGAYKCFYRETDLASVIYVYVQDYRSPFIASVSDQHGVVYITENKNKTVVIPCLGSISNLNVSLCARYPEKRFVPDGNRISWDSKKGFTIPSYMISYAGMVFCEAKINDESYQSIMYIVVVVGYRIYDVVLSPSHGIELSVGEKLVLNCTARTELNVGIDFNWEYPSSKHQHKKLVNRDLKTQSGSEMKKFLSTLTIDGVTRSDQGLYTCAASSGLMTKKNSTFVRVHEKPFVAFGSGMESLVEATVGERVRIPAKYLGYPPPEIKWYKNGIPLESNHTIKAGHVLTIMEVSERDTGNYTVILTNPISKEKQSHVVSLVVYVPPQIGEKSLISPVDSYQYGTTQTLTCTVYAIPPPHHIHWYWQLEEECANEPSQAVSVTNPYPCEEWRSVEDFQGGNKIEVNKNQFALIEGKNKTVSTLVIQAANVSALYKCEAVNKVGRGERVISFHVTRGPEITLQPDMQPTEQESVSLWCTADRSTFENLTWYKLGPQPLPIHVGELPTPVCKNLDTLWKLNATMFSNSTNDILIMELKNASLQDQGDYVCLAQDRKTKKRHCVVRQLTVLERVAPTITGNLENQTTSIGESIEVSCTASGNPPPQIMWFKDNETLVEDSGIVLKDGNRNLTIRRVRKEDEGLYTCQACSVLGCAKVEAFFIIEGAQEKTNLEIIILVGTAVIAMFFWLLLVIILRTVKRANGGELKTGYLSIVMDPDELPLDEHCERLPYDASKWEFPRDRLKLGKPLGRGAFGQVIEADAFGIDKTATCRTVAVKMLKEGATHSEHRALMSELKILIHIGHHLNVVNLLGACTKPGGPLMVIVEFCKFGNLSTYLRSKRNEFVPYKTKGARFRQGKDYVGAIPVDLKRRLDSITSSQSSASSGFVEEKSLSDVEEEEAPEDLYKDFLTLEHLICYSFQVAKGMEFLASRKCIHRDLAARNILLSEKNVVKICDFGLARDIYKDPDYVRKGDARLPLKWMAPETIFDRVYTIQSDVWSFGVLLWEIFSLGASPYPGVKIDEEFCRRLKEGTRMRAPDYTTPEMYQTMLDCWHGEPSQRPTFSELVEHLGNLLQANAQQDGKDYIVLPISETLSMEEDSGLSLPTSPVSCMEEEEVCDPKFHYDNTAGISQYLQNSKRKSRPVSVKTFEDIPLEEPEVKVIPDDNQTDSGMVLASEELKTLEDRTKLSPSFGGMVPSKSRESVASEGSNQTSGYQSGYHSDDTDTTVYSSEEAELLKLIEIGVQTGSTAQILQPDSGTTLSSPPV

Structure (SMILES)	IC50 (Histone deacetylase 6)	IC50 [1]
COc1cc2c(Oc3ccc(NC(=O)C4(C(=O)Nc5ccc(F)cc5)CC4)cc3F)ccnc2cc1OCCCCCCNC(=O)CSC(C)=O [US12304898, Example 63]	97.8 nM	36 nM
COc1cc2c(Oc3ccc(NC(=O)C4(C(=O)Nc5ccc(F)cc5)CC4)cc3F)ccnc2cc1OCCCNCCCS [US12304898, Example 51]		7.7 nM
COc1cc2c(Oc3ccc(NC(=O)C4(C(=O)Nc5ccc(F)cc5)CC4)cc3F)ccnc2cc1OCCCCNC(=O)CSC(C)=O [US12304898, Example 61]	29.9 nM	12 nM
COc1cc2c(Oc3ccc(NC(=O)C4(C(=O)Nc5ccc(F)cc5)CC4)cc3F)ccnc2cc1OCCCCCNC(=O)CSC(C)=O [US12304898, Example 57]	48.3 nM	20 nM
COc1cc2c(Oc3ccc(NC(=O)C4(C(=O)Nc5ccc(F)cc5)CC4)cc3F)ccnc2cc1OCCCNCCCSC(C)=O [US12304898, Example 50]		6.6 nM
COc1cc2c(Oc3ccc(NC(=O)C4(C(=O)Nc5ccc(F)cc5)CC4)cc3F)ccnc2cc1OCCCN(C)CCCS [US12304898, Example 53]		4.7 nM
COc1cc2c(Oc3ccc(NC(=O)C4(C(=O)Nc5ccc(F)cc5)CC4)cc3F)ccnc2cc1OCCCN(C)CCCSC(C)=O [US12304898, Example 52]		3.2 nM
CC(=O)SCC(=O)NCCCCCOc1cc2nccc(Oc3ccc(NC(=O)C4(C(=O)NC5CC5)CC4)cc3F)c2cc1C(N)=O [US12304898, Example 73]		45 nM
COc1cc2c(Oc3ccc(NC(=O)C4(C(=O)Nc5ccc(F)cc5)CC4)cc3F)ccnc2cc1OCCCCCNC(=O)CS [US12304898, Example 58]	15.4 nM	25 nM
COc1cc2c(Oc3ccc(NC(=O)C4(C(=O)NC5CC5)CC4)cc3F)ccnc2cc1OCCCCCNC(=O)CSC(C)=O [US12304898, Example 67]		30 nM
